The text below walks through data of US20240208937A1, “Compounds and Their Use for Treatment of Hemoglobinopathies” (Bristol-Myers Squibb Company, priority 2022, published 2024).

Molecules are shown by their SMILES. pEC50: −log10 of the molar value.

One may read the pEC50 as −log10 of the EC50, conventionally taken in molar units. High values mean a low EC50, low ones a high EC50.

Common to all, as to type: cell-based
For experiment [1], the target named is ZBTB7A (Zinc Finger And BTB Domain Containing 7A) (Homo sapiens (Human), UniProt O95365+Q96SW2). Briefly: HUDEP-2 ZBTB7A HiBiT degradation assay. Conditions: HUDEP-2 ZBTB7A HiBiT cells, 24 hours treatment, luminescence; for DC50: read-out: ZBTB7A EC50. Here is the method:
(§1) The HiBiT degradation assay for WIZ and ZBTB7A in HUDEP-2 cells was performed as described below. HUDEP-2 cells engineered to express a HiBiT tag in either the WIZ (Widely interspaced zinc finger) or ZBTB7A (Zinc Finger And BTB Domain Containing 7A) proteins were maintained in low attachment flasks in StemSpan SFEM II media supplemented with Penicillin-Streptomycin (50 U/mL), rhSCF (50 ng/mL), rhEPO (3 IU/mL), dexamethasone (0.4 μg/mL) and doxycycline (1 μg/mL). Prior to start of the assay, cell count and viability were measured by trypan blue exclusion using the Vi-cell XR cell viability analyzer. For the HUDEP-2 WIZ HiBiT assay, cells were transferred to a 50 mL conical and centrifuged at 500 g for five minutes. Cells were resuspended in fresh StemSpan SFEM II media supplemented with Penicillin-Streptomycin (50 U/mL), rhSCF (50 ng/mL), rhEPO (3 IU/mL), dexamethasone (0.4 μg/mL) and doxycycline (1 μg/mL) at a density of 1.0×10^6 cells/ml. Forty microliters of cell suspension was dispensed into 384-well Low Flange White Flat Bottom Polystyrene TC-treated Microplates containing pre-dispensed compounds, using a VIAFLO 384 liquid hander, and placed in a 37° C. incubator with 5% CO2. […] After 24 hours of treatment, 40 μL Nano-Glo HiBiT Lytic Detection System reagent was dispensed into each well using a VIAFLO 384 liquid hander. Plates were incubated for 25 minutes at room temperature and the luminescence was read as relative luminescent units using the EnVision plate reader. EC50 and Y-min values were calculated using curves calculated from dotmatics software after the normalization to the DMSO control of 10 different concentrations: 10, 3.33, 1.11, 0.37, 0.12, 0.04 0.0137, 0.0046, 0.0015 and 0.0005 μM respectively.
For the HUDEP-2 ZBTB7A HiBiT assay, cell count and viability were measured by trypan blue exclusion using the Vi-cell XR cell viability analyzer and the cells were transferred to a 50 mL conical and centrifuged at 500 g for five minutes. Cells were resuspended in fresh IMDM media supplemented with L-Glutamine (1×), Penicillin-Streptomycin (50 U/mL), holo-transferrin (330 μg/mL), heparin (2 IU/mL), r-human Insulin (10 μg/mL), rhEPO (3 IU/mL), rhSCF (100 ng/mL)+Dox (1 μg/mL) and 5% human plasma in low attachment flasks, which were placed in a 37° C. incubator with 5% CO2. After 48 hours, cell count and viability were measured by trypan blue exclusion using the Vi-cell XR cell viability analyzer. The HUDEP-2 ZBTB7A cells were transferred to a 50 mL conical, centrifuged at 500 g for five minutes and resuspended at a density of 1.0×10^6 cells/ml in IMDM media supplemented with L-Glutamine (1×), Penicillin-Streptomycin (50 U/mL), holo-transferrin (330 μg/mL), heparin (2 IU/mL), r-human Insulin (10 μg/mL), rhEPO (3 IU/mL), rhSCF (100 ng/mL)+Dox (1 μg/mL) and 5% human plasma. Forty microliters of cell suspension was dispensed into 384-well Low Flange White Flat Bottom Polystyrene TC-treated Microplates containing pre-dispensed compounds, using a VIAFLO 384 liquid hander, and placed in a 37° C. incubator with 5% CO2. […] After 24 hours of treatment, 40 μL Nano-Glo HiBiT Lytic Detection System reagent was dispensed into each well using a VIAFLO 384 liquid hander. Plates were incubated for 25 minutes at room temperature and the luminescence was read as relative luminescent units using the EnVision plate reader. EC50 and Y-min values were calculated using curves calculated from dotmatics software after the normalization to the DMSO control of 10 different concentrations: 10, 3.33, 1.11, 0.37, 0.12, 0.04 0.0137, 0.0046, 0.0015 and 0.0005 μM respectively.
In general terms: HiBiT is a short tag that completes a luciferase, so light tracks the accessible tagged protein.

For experiment [2], the system named is fetal hemoglobin (HbF) in GCSF-mobilized human CD34+ cells. Briefly: HbF Induction Assay. Conditions: 168 h; compound 1 μM, 7 days, erythroid-differentiated human CD34+ cells, flow cytometry; DMSO baseline 15% HbF positive cells. Here is the method: The expansion, differentiation, and maturation of GCSF-mobilized human CD34^+ (STEMCELL Technologies Inc.) cells towards erythroid lineage cells were performed using a two-phase liquid culture model (Moutouh-de Parseval L A, el al. Pomalidomide and lenalidomide regulate erythropoiesis and fetal hemoglobin production in human CD34+ cells. J Clin Invest. 2008 January; 118(1):248-58). In the first phase, GCSF-mobilized human CD34^+ cells were cultured using StemSpan™-XF (STEMCELL Technologies Inc.) media supplemented with 1×BIT 9500, Penicillin-Streptomycin (50 U/mL), 100 ng/mL recombinant human (rh) SCF, 100 ng/mL rh Flt3-L, 20 ng/mL rh IL-3 and 10 ng/mL rh EPO and the growth of cells maintained in exponential phase for 7 days at 37° C. with 5% CO2 to support expansion and progenitor differentiation prior the second phase and treatment with compounds. In the second phase, culture media was changed to StemSpan™-XF media supplemented with 1×BIT 9500, Penicillin-Streptomycin (50 U/mL), 50 ng/mL rh SCF and 40 ng/mL rh EPO to promote further differentiation and maturation of the erythrocytes and to initiate treatment with compounds. Compounds were dispensed in duplicate at a final concentration of 1 μM in a final DMSO amount of 0.1%. Fresh compound was reapplied, and cell density was kept constant every 2 days. After 7 days, the cells were assessed for viability and fetal hemoglobin expression using flow cytometry. For viability analysis, eBioscience™ Fixable Viability Dye eFluor™ 780 (1:1000, eBioscience; Cat #65-0865-14) was added to the cells and kept in the dark for 10 minutes. For analysis of fetal hemoglobin (HbF), cells were fixed and permeabilized using Fixation Buffer (BioLegend; Cat #420801 and Intracellular staining permeabilization buffer (BioLegend, Cat #420201) following manufacturer's instructions. During permeabilization step, cells were stained with PE-labelled Mouse Anti-Human Fetal Hemoglobin (1:10, clone 2D12; BD Biosciences, Cat #BDB560041) incubated at room temperature for 20 minutes and protected from light. PE-labelled Mouse anti-IgG k, (1:10 clone MOPC-21; BD Biosciences, Cat# BDB551436) was used as an isotype control.
Viability, cell count, and fetal hemoglobin (HbF) levels were measured using an Attune NXT flow cytometer (Thermofisher) and the data analyzed using the FCS express software (De Novo Software). In Table 1 below, the effects of compounds of formula (I), formula (I′), formula (II), formula (II′), and formula (III) on % viable cells, viable cell count, on the % HbF positive cells and the median fluorescent intensity (MFI) of the HbF positive cell population compared to the DMSO controls can be viewed. All gates were set using the isotype negative control. The baseline % HbF positive cells for DMSO-treated control cells was 15%. Compounds of formula (I), formula (I′), formula (II), formula (II′), and formula (III) having HbF induction between 66% and 100% are level A. Compounds of formula (I), formula (I′), formula (II), formula (II′), and formula (III) having HbF induction between 33% and 66% are level B. Compounds of formula (I), formula (I′), formula (II), formula (II′), and formula (III) having HbF induction % less than 33% are level C. For certain compounds of formula (I), formula (I′), formula (II), formula (II′), and formula (III) % HbF induction values 0-33% (activity level C), between 33% and 66% (activity level B), and between 67% and 100% (activity level A) are shown in Table 2 below.
A general note: In flow cytometry, cells or beads pass a laser one at a time.

The target in experiment [3] is WIZ (Widely interspaced zinc finger) (Homo sapiens (Human), UniProt O95785+Q96SW2). The experiment can be described thus: HUDEP-2 WIZ HiBiT degradation assay. The following applies: HUDEP-2 WIZ HiBiT cells, 24 hours treatment, luminescence; for DC50: read-out: WIZ EC50. The procedure: as §1
Sequence of WIZ (Widely interspaced zinc finger) (O95785 whole entry): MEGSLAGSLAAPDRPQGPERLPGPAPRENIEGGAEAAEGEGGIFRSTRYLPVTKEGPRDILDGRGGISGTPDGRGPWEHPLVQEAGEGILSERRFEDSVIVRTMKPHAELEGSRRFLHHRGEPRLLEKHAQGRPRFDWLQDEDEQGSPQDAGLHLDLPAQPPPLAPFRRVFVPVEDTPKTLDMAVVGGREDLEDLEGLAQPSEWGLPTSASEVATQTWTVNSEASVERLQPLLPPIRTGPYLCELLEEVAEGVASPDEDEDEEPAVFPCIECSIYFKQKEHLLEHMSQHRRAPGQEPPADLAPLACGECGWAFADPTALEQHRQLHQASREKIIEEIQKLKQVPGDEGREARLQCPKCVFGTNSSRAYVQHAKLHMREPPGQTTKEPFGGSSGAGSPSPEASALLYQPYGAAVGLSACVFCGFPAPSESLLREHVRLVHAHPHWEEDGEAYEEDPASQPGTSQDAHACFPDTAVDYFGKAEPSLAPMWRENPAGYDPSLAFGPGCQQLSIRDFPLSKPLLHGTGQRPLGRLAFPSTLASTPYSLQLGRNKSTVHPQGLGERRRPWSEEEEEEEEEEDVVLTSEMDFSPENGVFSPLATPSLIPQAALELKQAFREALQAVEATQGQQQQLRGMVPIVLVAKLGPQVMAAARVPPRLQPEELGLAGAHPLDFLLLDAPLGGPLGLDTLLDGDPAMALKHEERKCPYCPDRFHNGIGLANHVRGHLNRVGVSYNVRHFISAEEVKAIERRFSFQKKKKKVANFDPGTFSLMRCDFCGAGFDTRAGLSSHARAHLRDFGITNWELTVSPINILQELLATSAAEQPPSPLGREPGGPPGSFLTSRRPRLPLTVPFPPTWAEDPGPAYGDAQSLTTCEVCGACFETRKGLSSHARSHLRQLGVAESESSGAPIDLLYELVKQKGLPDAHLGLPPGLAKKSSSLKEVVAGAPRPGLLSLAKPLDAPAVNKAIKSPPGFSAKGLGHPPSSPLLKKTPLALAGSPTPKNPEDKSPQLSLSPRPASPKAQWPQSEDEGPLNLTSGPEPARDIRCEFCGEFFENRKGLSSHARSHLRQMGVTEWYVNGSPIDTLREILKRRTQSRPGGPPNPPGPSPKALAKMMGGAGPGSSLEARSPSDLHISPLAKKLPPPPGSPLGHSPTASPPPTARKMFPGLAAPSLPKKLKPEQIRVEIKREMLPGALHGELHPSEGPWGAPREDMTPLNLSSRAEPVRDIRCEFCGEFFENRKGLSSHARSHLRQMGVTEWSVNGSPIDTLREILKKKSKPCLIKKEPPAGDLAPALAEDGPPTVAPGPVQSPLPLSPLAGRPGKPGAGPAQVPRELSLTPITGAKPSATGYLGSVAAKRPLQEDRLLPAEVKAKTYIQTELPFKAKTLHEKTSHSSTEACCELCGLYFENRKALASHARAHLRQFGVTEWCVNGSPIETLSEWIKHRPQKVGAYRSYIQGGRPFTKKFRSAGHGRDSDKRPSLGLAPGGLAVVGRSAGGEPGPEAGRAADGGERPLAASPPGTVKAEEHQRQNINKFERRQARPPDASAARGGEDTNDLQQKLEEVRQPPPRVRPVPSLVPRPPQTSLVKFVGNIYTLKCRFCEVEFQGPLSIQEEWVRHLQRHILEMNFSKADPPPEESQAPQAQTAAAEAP
Sequence of WIZ (Widely interspaced zinc finger) (Q96SW2 whole entry): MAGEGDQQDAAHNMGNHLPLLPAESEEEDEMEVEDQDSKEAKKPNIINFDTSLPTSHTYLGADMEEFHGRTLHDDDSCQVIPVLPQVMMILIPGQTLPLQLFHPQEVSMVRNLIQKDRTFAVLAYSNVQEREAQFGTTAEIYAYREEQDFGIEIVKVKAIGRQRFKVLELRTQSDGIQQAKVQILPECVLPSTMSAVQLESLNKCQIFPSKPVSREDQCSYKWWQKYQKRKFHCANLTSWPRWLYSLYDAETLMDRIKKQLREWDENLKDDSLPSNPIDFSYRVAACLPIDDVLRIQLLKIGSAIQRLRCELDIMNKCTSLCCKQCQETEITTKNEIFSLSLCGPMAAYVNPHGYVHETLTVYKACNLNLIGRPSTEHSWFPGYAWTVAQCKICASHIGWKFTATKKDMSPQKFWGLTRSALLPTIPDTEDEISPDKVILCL
Sequence of WIZ (Widely interspaced zinc finger) (Q16531 whole entry partner): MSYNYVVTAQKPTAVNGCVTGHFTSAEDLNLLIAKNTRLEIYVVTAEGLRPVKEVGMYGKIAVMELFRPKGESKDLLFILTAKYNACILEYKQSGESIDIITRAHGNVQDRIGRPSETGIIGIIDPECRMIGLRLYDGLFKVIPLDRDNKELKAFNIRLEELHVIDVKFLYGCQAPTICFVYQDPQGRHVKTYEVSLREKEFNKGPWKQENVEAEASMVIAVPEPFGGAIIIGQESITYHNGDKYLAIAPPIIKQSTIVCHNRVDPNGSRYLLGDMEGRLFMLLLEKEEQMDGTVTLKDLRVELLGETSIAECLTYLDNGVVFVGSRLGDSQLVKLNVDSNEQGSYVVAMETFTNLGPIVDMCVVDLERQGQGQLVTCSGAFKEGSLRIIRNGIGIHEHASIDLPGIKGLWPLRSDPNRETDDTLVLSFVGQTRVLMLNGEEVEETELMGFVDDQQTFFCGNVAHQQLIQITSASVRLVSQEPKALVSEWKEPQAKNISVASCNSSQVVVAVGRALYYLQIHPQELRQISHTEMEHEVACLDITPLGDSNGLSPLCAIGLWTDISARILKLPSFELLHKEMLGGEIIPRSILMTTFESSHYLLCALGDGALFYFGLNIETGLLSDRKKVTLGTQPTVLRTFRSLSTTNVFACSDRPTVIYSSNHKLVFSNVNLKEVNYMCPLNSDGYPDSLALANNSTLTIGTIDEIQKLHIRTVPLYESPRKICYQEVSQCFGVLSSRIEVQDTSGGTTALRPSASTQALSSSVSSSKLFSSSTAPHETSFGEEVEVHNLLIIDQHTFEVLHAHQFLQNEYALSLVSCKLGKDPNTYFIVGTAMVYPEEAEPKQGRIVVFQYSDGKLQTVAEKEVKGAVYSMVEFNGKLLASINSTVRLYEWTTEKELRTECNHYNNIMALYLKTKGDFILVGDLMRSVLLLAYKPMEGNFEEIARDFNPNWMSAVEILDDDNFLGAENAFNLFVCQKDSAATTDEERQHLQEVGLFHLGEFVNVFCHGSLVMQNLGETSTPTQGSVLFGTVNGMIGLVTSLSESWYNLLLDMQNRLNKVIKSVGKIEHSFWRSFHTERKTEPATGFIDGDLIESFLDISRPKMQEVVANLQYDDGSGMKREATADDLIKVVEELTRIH

Sequence of ZBTB7A (Zinc Finger And BTB Domain Containing 7A) (O95365 whole entry, the tested form may be a part): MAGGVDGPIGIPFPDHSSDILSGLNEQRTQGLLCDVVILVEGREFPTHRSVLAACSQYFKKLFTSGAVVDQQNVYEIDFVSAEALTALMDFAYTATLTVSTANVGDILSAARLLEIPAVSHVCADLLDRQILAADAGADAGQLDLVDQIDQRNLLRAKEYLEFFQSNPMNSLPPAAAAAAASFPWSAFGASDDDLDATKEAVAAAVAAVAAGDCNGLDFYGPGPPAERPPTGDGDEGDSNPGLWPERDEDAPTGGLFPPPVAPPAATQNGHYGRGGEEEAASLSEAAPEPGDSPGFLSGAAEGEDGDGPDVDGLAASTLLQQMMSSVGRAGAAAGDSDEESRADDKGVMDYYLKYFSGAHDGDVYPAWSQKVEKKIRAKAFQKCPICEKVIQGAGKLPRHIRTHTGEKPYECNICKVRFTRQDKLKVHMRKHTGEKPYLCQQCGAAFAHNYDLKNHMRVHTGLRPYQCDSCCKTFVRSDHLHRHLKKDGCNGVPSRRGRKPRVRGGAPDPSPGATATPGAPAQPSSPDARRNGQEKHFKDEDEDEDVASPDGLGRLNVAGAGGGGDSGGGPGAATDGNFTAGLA
Sequence of ZBTB7A (Zinc Finger And BTB Domain Containing 7A) (Q96SW2 whole entry, the tested form may be a part): as the sequence (Q96SW2 whole entry) above
Sequence of ZBTB7A (Zinc Finger And BTB Domain Containing 7A) (Q16531 whole entry partner, the tested form may be a part): as the sequence (Q16531 whole entry partner) above

`Cc1cc(-c2cc3c(cc2Nc2cccc4c2C(=O)N([C@H]2CCC(=O)NC2=O)C4=O)n(C)c(=O)n3C)cc(C)n1` [Compound 40, (S)-4-((6-(2,6-dimethylpyridin-4-yl)-1,3-dimethyl-2-oxo-2,3-dihydro-1H-benzo[d]imidazol-5-yl)amino)-2-(2,6-dioxopiperidin-3-yl)isoindoline-1,3-dione]: the pEC50 in experiment [1] was greater than 7.52; in experiment [3], greater than 8.00. For the same compound, the activation at 1 µM in experiment [2] fell in the range of 66 to 100%.
`Cc1cc(-c2cc3c(cnn3[C@@H]3CCOC3)cc2Nc2cccc3c2C(=O)N([C@H]2CCC(=O)NC2=O)C3=O)ccn1` [Compound 44, 2-((S)-2,6-dioxopiperidin-3-yl)-4-((6-(2-methylpyridin-4-yl)-1-((R)-tetrahydrofuran-3-yl)-1H-indazol-5-yl)amino)isoindoline-1,3-dione]: the DC50 in experiment [1] was 30 to 100 nM; in experiment [3] it was 10 to 100 nM. In addition, the activation at 1 µM in experiment [2] lay in the range of 66 to 100%.
With `Cc1cccc(F)c1Oc1ccc2c(cnn2C)c1Nc1cccc2c1C(=O)N(C1CCC(=O)NC1=O)C2=O` (stereo not drawn) [Compound 6, 2-(2,6-dioxopiperidin-3-yl)-4-((5-(2-fluoro-6-methylphenoxy)-1-methyl-1H-indazol-4-yl)amino)isoindoline-1,3-dione], in experiment [1], the DC50 lay in the range of 30 to 100 nM. In experiment [2], the activation at 1 µM is 66 to 100%. The pEC50 in experiment [3] is greater than 8.00.
With `Cc1cc(-c2cc3nc(C)n(C)c3cc2Nc2cccc3c2C(=O)N(C2CCC(=O)NC2=O)C3=O)ccn1` (stereo not drawn) [Compound 1, 4-((1,2-dimethyl-5-(2-methylpyridin-4-yl)-1H-benzo[d]imidazol-6-yl)amino)-2-(2,6-dioxopiperidin-3-yl)isoindoline-1,3-dione], the DC50 in experiment [1] was less than 30 nM; in experiment [3] it was 10 to 100 nM. Further, the activation at 1 µM in experiment [2] is 66 to 100%.
With `Cc1cc(-c2cc3c(cc2Nc2cccc4c2C(=O)N(C2CCC(=O)NC2=O)C4=O)c(C)nn3C)ccn1` (stereo not drawn) [Compound 3, 4-((1,3-dimethyl-6-(2-methylpyridin-4-yl)-1H-indazol-5-yl)amino)-2-(2,6-dioxopiperidin-3-yl)isoindoline-1,3-dione], the pEC50 in experiment [1] was greater than 7.52. Moreover, the activation at 1 µM in experiment [2] was in the range of 66 to 100%. Further, the DC50 in experiment [3] fell in the range of 10 to 100 nM.
With `Cc1cc(-c2cc3onc(C)c3cc2Nc2cccc3c2C(=O)N(C2CCC(=O)NC2=O)C3=O)ccn1` (stereo not drawn) [Compound 8, 2-(2,6-dioxopiperidin-3-yl)-4-((3-methyl-6-(2-methylpyridin-4-yl)benzo[d]isoxazol-5-yl)amino)isoindoline-1,3-dione], the DC50 lay in the range of 30 to 100 nM in experiment [1] and 10 to 100 nM in experiment [3]. Also, the activation at 1 µM in experiment [2] is 66 to 100%.
For `Cn1ncc2cc(Nc3cccc4c3C(=O)N(C3CCC(=O)NC3=O)C4=O)c(Oc3ccc(F)cc3)cc21` (stereo not drawn) [Compound 17, 2-(2,6-dioxopiperidin-3-yl)-4-((6-(4-fluorophenoxy)-1-methyl-1H-indazol-5-yl)amino)isoindoline-1,3-dione], in that order: 30 to 100 nM, 10 to 100 nM and 66 to 100%.
As for `COc1cc2c(cnn2C2CCOCC2)cc1Nc1cccc2c1C(=O)N(C1CCC(=O)NC1=O)C2=O` (stereo not drawn) [Compound 18, 2-(2,6-dioxopiperidin-3-yl)-4-((6-methoxy-1-(tetrahydro-2H-pyran-4-yl)-1H-indazol-5-yl)amino)isoindoline-1,3-dione], the DC50 in experiment [1] is 30 to 100 nM. The compound also had an activation at 1 µM in experiment [2] of 66 to 100%. In experiment [3], this compound showed a pEC50 greater than 8.00.
`Cn1ncc2cc(Nc3cccc4c3C(=O)N(C3CCC(=O)NC3=O)C4=O)c(Oc3cccc(Cl)c3)cc21` (stereo not drawn) [Compound 25, 4-((6-(3-chlorophenoxy)-1-methyl-1H-indazol-5-yl)amino)-2-(2,6-dioxopiperidin-3-yl)isoindoline-1,3-dione] had a pEC50 in experiment [1] of less than 7.00. In experiment [2], this compound returned an activation at 1 µM of 33 to 66%. The DC50 in experiment [3] is 10 to 100 nM.
As for `O=C1CCC(N2C(=O)c3cccc(Nc4cc5cnn(C6CCOCC6)c5cc4Oc4cccc(F)c4)c3C2=O)C(=O)N1` (stereo not drawn) [Compound 16, 2-(2,6-dioxopiperidin-3-yl)-4-((6-(3-fluorophenoxy)-1-(tetrahydro-2H-pyran-4-yl)-1H-indazol-5-yl)amino)isoindoline-1,3-dione], the negative logarithm of the EC50 (pEC50) in experiment [1] was less than 7.00; in experiment [3], greater than 8.00. Besides, the activation at 1 µM in experiment [2] lay within 66 to 100%.
